# Laboratory results from article PMC5218480 (PLoS ONE, 2017).
# Tested on: MV-4-11 cells
# Experiment: Gene expression microarray analysis (Affymetrix PrimeView) and GSEA
# Type: cell-based, human
# Design: RFU PODN (11730768_x_at) / Fold change /veh PODN (11730768_x_at) / RFU LINC00158 (11744669_a_at) / Fold change /veh LINC00158 (11744669_a_at) / RFU DUSP10 (11751237_a_at) / Fold change /veh DUSP10 (11751237_a_at) / RFU ID3 (11757404_x_at) / Fold change /veh ID3 (11757404_x_at) / RFU PLEKHG5 (11737974_s_at) / Fold change /veh PLEKHG5 (11737974_s_at) / RFU LRRC4B (11730491_at) / Fold change /veh LRRC4B (11730491_at) / RFU GIMAP4 (11747438_a_at) / Fold change /veh GIMAP4 (11747438_a_at) / RFU KRT8 (11758183_x_at) / Fold change /veh KRT8 (11758183_x_at) / RFU CNN1 (11734310_a_at) / Fold change /veh CNN1 (11734310_a_at) / RFU VPS37D (11726825_at) / Fold change /veh VPS37D (11726825_at) / RFU C10orf10 (11716522_x_at) / Fold change /veh C10orf10 (11716522_x_at) / RFU KIR2DL2 /// KIR2DL4 /// KIR2DL5A /// KIR2DL5B /// KIR2DS1 /// KIR2DS2 /// KIR2DS3 /// KIR2DS4 /// KIR3DL3 /// KIR3DL3 /// KIR3DS1 (11738374_at) / Fold change /veh KIR2DL2 /// KIR2DL4 /// KIR2DL5A /// KIR2DL5B /// KIR2DS1 /// KIR2DS2 /// KIR2DS3 /// KIR2DS4 /// KIR3DL3 /// KIR3DL3 /// KIR3DS1 (11738374_at) / RFU C1QL1 (11718748_at) / Fold change /veh C1QL1 (11718748_at) / RFU TMPRSS4 (11747572_a_at) / Fold change /veh TMPRSS4 (11747572_a_at) / RFU HAMP (11756126_x_at) / Fold change /veh HAMP (11756126_x_at) / RFU RNFT2 (11725882_a_at) / Fold change /veh RNFT2 (11725882_a_at) / RFU NR4A2 (11747474_a_at) / Fold change /veh NR4A2 (11747474_a_at) / RFU ABCC12 (11746883_a_at) / Fold change /veh ABCC12 (11746883_a_at) / RFU TMEM136 (11760407_x_at) / Fold change /veh TMEM136 (11760407_x_at) / RFU CLDN22 /// WWC2 (11732394_at) / Fold change /veh CLDN22 /// WWC2 (11732394_at) / RFU HLA-DPB1 (11760878_x_at) / Fold change /veh HLA-DPB1 (11760878_x_at) / RFU SPINT1 (11716480_a_at) / Fold change /veh SPINT1 (11716480_a_at) / RFU GAP43 (11754022_s_at) / Fold change /veh GAP43 (11754022_s_at) / RFU A4GNT (11735810_at) / Fold change /veh A4GNT (11735810_at) / RFU PRB3 (11715151_x_at) / Fold change /veh PRB3 (11715151_x_at) / RFU TUBB4B (11761932_at) / Fold change /veh TUBB4B (11761932_at) / RFU CAPN14 (11732068_a_at) / Fold change /veh CAPN14 (11732068_a_at) / RFU TMCC2 (11721928_a_at) / Fold change /veh TMCC2 (11721928_a_at) / RFU IRGQ (11745062_a_at) / Fold change /veh IRGQ (11745062_a_at) / RFU FAM174B (11720279_a_at) / Fold change /veh FAM174B (11720279_a_at) / RFU TMPRSS4 (11748680_a_at) / Fold change /veh TMPRSS4 (11748680_a_at) / RFU FAM212B (11763350_a_at) / Fold change /veh FAM212B (11763350_a_at) / RFU PLEKHG5 (11743358_a_at) / Fold change /veh PLEKHG5 (11743358_a_at) / RFU ZSCAN30 (11745921_a_at) / Fold change /veh ZSCAN30 (11745921_a_at) / RFU CMKLR1 (11741424_a_at) / Fold change /veh CMKLR1 (11741424_a_at) / RFU LOC101060620 /// MAPK8IP1 (11723275_at) / Fold change /veh LOC101060620 /// MAPK8IP1 (11723275_at) / RFU SPTSSB (11747773_x_at) / Fold change /veh SPTSSB (11747773_x_at) / RFU PRSS12 (11739890_at) / Fold change /veh PRSS12 (11739890_at) / RFU BIN1 (11741810_x_at) / Fold change /veh BIN1 (11741810_x_at) / RFU WNT11 (11732464_a_at) / Fold change /veh WNT11 (11732464_a_at) / RFU C10orf10 (11716521_a_at) / Fold change /veh C10orf10 (11716521_a_at) / RFU C5orf56 (11738089_at) / Fold change /veh C5orf56 (11738089_at) / RFU CYB561 (11721691_x_at) / Fold change /veh CYB561 (11721691_x_at) / RFU ANKRD19P (11752326_a_at) / Fold change /veh ANKRD19P (11752326_a_at) / RFU OR2T12 /// OR2T33 /// OR2T8 (11738714_s_at) / Fold change /veh OR2T12 /// OR2T33 /// OR2T8 (11738714_s_at) / RFU VCAN (11748164_a_at) / Fold change /veh VCAN (11748164_a_at) / RFU JSRP1 (11732532_at) / Fold change /veh JSRP1 (11732532_at) / RFU KRTAP10-11 (11738290_x_at) / Fold change /veh KRTAP10-11 (11738290_x_at) / RFU MYO3A (11730013_a_at) / Fold change /veh MYO3A (11730013_a_at) / RFU EBF3 (11725865_a_at) / Fold change /veh EBF3 (11725865_a_at) / RFU CAMK2N1 (11719241_x_at) / Fold change /veh CAMK2N1 (11719241_x_at) / RFU C5orf56 (11738088_a_at) / Fold change /veh C5orf56 (11738088_a_at) / RFU OLFML3 (11715873_a_at) / Fold change /veh OLFML3 (11715873_a_at) / RFU LOC100653217 /// NTM (11731650_a_at) / Fold change /veh LOC100653217 /// NTM (11731650_a_at) / RFU MAPK11 (11762145_a_at) / Fold change /veh MAPK11 (11762145_a_at) / RFU FIZ1 (11724087_x_at) / Fold change /veh FIZ1 (11724087_x_at) / RFU OASL (11726364_x_at) / Fold change /veh OASL (11726364_x_at) / RFU SOX15 (11748057_x_at) / Fold change /veh SOX15 (11748057_x_at) / RFU CD79A (11719716_a_at) / Fold change /veh CD79A (11719716_a_at) / RFU HIST1H1D (11736915_at) / Fold change /veh HIST1H1D (11736915_at) / RFU CASKIN2 (11723855_a_at) / Fold change /veh CASKIN2 (11723855_a_at) / RFU LOC730098 (11760151_x_at) / Fold change /veh LOC730098 (11760151_x_at) / RFU OR4N2 (11742367_at) / Fold change /veh OR4N2 (11742367_at) / RFU PRRT2 (11749266_a_at) / Fold change /veh PRRT2 (11749266_a_at) / RFU SNX32 (11753110_a_at) / Fold change /veh SNX32 (11753110_a_at) / RFU CDHR5 (11726645_a_at) / Fold change /veh CDHR5 (11726645_a_at) / RFU RCAN1 (11760418_a_at) / Fold change /veh RCAN1 (11760418_a_at) / RFU FAM167A (11723789_a_at) / Fold change /veh FAM167A (11723789_a_at) / RFU FAM26E (11764081_at) / Fold change /veh FAM26E (11764081_at) / RFU ISYNA1 (11749810_s_at) / Fold change /veh ISYNA1 (11749810_s_at) / RFU ACY1 (11761880_at) / Fold change /veh ACY1 (11761880_at) / RFU 11764098_at / Fold change /veh 11764098_at / RFU SAMD14 (11745864_x_at) / Fold change /veh SAMD14 (11745864_x_at) / RFU NPB (11741838_a_at) / Fold change /veh NPB (11741838_a_at) / RFU TMPRSS6 (11731388_a_at) / Fold change /veh TMPRSS6 (11731388_a_at) / RFU KRTAP10-2 (11738614_at) / Fold change /veh KRTAP10-2 (11738614_at) / RFU ARHGAP8 /// PRR5-ARHGAP8 (11727945_x_at) / Fold change /veh ARHGAP8 /// PRR5-ARHGAP8 (11727945_x_at) / RFU KRTAP5-7 /// NADSYN1 (11734609_at) / Fold change /veh KRTAP5-7 /// NADSYN1 (11734609_at) / RFU RASL12 (11751679_a_at) / Fold change /veh RASL12 (11751679_a_at) / RFU CDKN2B (11736163_a_at) / Fold change /veh CDKN2B (11736163_a_at) / RFU PRF1 (11729649_at) / Fold change /veh PRF1 (11729649_at) / RFU, ZNF638 /// ZNF638-IT1 / Fold change vs veh, ZNF638 /// ZNF638-IT1 / RFU, PANK3 / Fold change vs veh, PANK3 / RFU, SH3YL1 / Fold change vs veh, SH3YL1 / RFU, ZEB2 / Fold change vs veh, ZEB2 / RFU, NRIP1 / Fold change vs veh, NRIP1 / RFU, PTTG1IP / Fold change vs veh, PTTG1IP / RFU, CAPN2 / Fold change vs veh, CAPN2 / RFU, MED14 / Fold change vs veh, MED14 / RFU, SNORA58 / Fold change vs veh, SNORA58 / RFU, C1orf63 / Fold change vs veh, C1orf63 / RFU, LRRFIP1 / Fold change vs veh, LRRFIP1 / RFU, NDUFAF7 / Fold change vs veh, NDUFAF7 / RFU, SLC12A2 / Fold change vs veh, SLC12A2 / RFU, IBTK / Fold change vs veh, IBTK / RFU, ESF1 / Fold change vs veh, ESF1 / Fold change vs veh, TMEM50B / RFU, TAOK1 / Fold change vs veh, TAOK1 / RFU, ACBD3 / Fold change vs veh, ACBD3 / RFU, TMA16 / Fold change vs veh, TMA16 / RFU, RWDD3 / Fold change vs veh, RWDD3 / RFU, BCAT1 / Fold change vs veh, BCAT1 / RFU, EDEM3 / Fold change vs veh, EDEM3 / RFU, TMEM33 / Fold change vs veh, TMEM33 / RFU, WDR75 / Fold change vs veh, WDR75 / RFU, AHCTF1 / Fold change vs veh, AHCTF1 / RFU, TFRC / Fold change vs veh, TFRC / RFU, ZDHHC17 / Fold change vs veh, ZDHHC17 / RFU, NOM1 / Fold change vs veh, NOM1 / RFU, ARL8B / Fold change vs veh, ARL8B / RFU, ZBTB11 / Fold change vs veh, ZBTB11 / RFU, TAMM41 / Fold change vs veh, TAMM41 / RFU, KIAA1704 /// LOC100996395 / Fold change vs veh, KIAA1704 /// LOC100996395 / RFU, ING1 / Fold change vs veh, ING1 / RFU, TRMT61B / Fold change vs veh, TRMT61B / RFU, FUBP3 / Fold change vs veh, FUBP3 / RFU, TP53 / Fold change vs veh, TP53 / RFU, TNKS2 / Fold change vs veh, TNKS2 / RFU, ZFP14 / Fold change vs veh, ZFP14 / RFU, ACTR2 / Fold change vs veh, ACTR2 / RFU, PPP3R1 / Fold change vs veh, PPP3R1 / RFU, PIK3R1 / Fold change vs veh, PIK3R1 / RFU, HNRNPA1 / Fold change vs veh, HNRNPA1 / RFU, RNF170 / Fold change vs veh, RNF170 / RFU, ZNF28 / Fold change vs veh, ZNF28 / RFU, RNGTT / Fold change vs veh, RNGTT / RFU, OGT / Fold change vs veh, OGT / RFU, BRD1 / Fold change vs veh, BRD1 / RFU, MARS / Fold change vs veh, MARS / RFU, ZNF655 / Fold change vs veh, ZNF655 / RFU, FAHD1 / Fold change vs veh, FAHD1 / RFU, BDP1 / Fold change vs veh, BDP1 / RFU, LRRCC1 / Fold change vs veh, LRRCC1 / RFU, ARID1A / Fold change vs veh, ARID1A / RFU, ZNF146 / Fold change vs veh, ZNF146 / RFU, ZNF330 / Fold change vs veh, ZNF330 / RFU, GPN3 / Fold change vs veh, GPN3 / RFU, C9orf123 / Fold change vs veh, C9orf123 / RFU, N4BP2L2 / Fold change vs veh, N4BP2L2 / RFU, ARFIP1 / Fold change vs veh, ARFIP1 / RFU, FAM179B / Fold change vs veh, FAM179B / RFU, BCL10 / Fold change vs veh, BCL10 / RFU, UHRF1BP1L / Fold change vs veh, UHRF1BP1L / RFU, BET1 / Fold change vs veh, BET1 / RFU, CNOT2 / Fold change vs veh, CNOT2 / RFU, ZNF268 / Fold change vs veh, ZNF268 / Fold change vs veh, ZNF507 / RFU, DGCR2 / Fold change vs veh, DGCR2 / RFU, WDSUB1 / Fold change vs veh, WDSUB1 / Fold change vs veh, HSP90B1 /// MIR3652 / RFU, ADSS / Fold change vs veh, ADSS / RFU, GK / Fold change vs veh, GK / RFU, ZNF148 / Fold change vs veh, ZNF148 / RFU, TAF9 / Fold change vs veh, TAF9 / RFU, SLC1A5 / Fold change vs veh, SLC1A5 / RFU, SLMO2 / Fold change vs veh, SLMO2 / RFU, ABCC4 / Fold change vs veh, ABCC4 / RFU, LOC101060439 /// RAP1B / Fold change vs veh, LOC101060439 /// RAP1B / RFU, RFX7 / Fold change vs veh, RFX7 / RFU, GTPBP10 / Fold change vs veh, GTPBP10 / RFU, CNEP1R1 / Fold change vs veh, CNEP1R1 / RFU, BIVM-ERCC5 /// ERCC5 / Fold change vs veh, BIVM-ERCC5 /// ERCC5 / RFU, ILF3 / Fold change vs veh, ILF3 / RFU 11762660_at / Fold change /veh 11762660_at / RFU VCAN (11757783_s_at) / Fold change /veh VCAN (11757783_s_at) / RFU DDX43 (11728927_at) / Fold change /veh DDX43 (11728927_at) / RFU KRT8 (11758188_x_at) / Fold change /veh KRT8 (11758188_x_at) / RFU NKD1 (11759106_at) / Fold change /veh NKD1 (11759106_at) / RFU SRD5A1 (11742802_a_at) / Fold change /veh SRD5A1 (11742802_a_at) / RFU TPSAB1 /// TPSB2 (11721975_s_at) / Fold change /veh TPSAB1 /// TPSB2 (11721975_s_at) / RFU GSTM3 (11746129_a_at) / Fold change /veh GSTM3 (11746129_a_at) / RFU IL23R (11737362_x_at) / Fold change /veh IL23R (11737362_x_at) / RFU TMEM51 (11727254_a_at) / Fold change /veh TMEM51 (11727254_a_at) / RFU PIWIL2 (11732686_x_at) / Fold change /veh PIWIL2 (11732686_x_at) / RFU ORM1 (11744905_x_at) / Fold change /veh ORM1 (11744905_x_at) / RFU CCDC152 (11743942_at) / Fold change /veh CCDC152 (11743942_at) / RFU ECM1 (11717891_a_at) / Fold change /veh ECM1 (11717891_a_at) / RFU IL23R (11748794_a_at) / Fold change /veh IL23R (11748794_a_at) / RFU TNFAIP8L3 (11732012_x_at) / Fold change /veh TNFAIP8L3 (11732012_x_at) / RFU MBOAT4 (11741988_at) / Fold change /veh MBOAT4 (11741988_at) / RFU 11764193_at / Fold change /veh 11764193_at / RFU TMEM53 (11763286_at) / Fold change /veh TMEM53 (11763286_at) / RFU MAGEB2 (11727129_at) / Fold change /veh MAGEB2 (11727129_at) / RFU TMEM200A (11744735_a_at) / Fold change /veh TMEM200A (11744735_a_at) / RFU CCDC152 (11751479_a_at) / Fold change /veh CCDC152 (11751479_a_at) / RFU FAM211A (11726209_a_at) / Fold change /veh FAM211A (11726209_a_at) / RFU RGS16 (11746705_a_at) / Fold change /veh RGS16 (11746705_a_at) / RFU VCAN (11755009_s_at) / Fold change /veh VCAN (11755009_s_at) / RFU RHOB (11743442_s_at) / Fold change /veh RHOB (11743442_s_at) / RFU RGS16 (11720943_a_at) / Fold change /veh RGS16 (11720943_a_at) / RFU RGS16 (11720944_at) / Fold change /veh RGS16 (11720944_at) / RFU, VPS4B / Fold change vs veh, VPS4B / RFU, CREB1 / Fold change vs veh, CREB1 / RFU, DNAJC13 / Fold change vs veh, DNAJC13 / RFU, GNAQ / Fold change vs veh, GNAQ / RFU, CDK5R1 / Fold change vs veh, CDK5R1 / RFU, ZRANB3 / Fold change vs veh, ZRANB3 / RFU, CUL4A / Fold change vs veh, CUL4A / RFU, CCNY / Fold change vs veh, CCNY / RFU, UFL1 / Fold change vs veh, UFL1 / RFU, COG3 / Fold change vs veh, COG3 / RFU, DIAPH2 / Fold change vs veh, DIAPH2 / RFU, SKA2 / Fold change vs veh, SKA2 / RFU, AFF3 / Fold change vs veh, AFF3 / RFU, LMF1 / Fold change vs veh, LMF1 / RFU, IPO11 / Fold change vs veh, IPO11 / RFU, DFFB / Fold change vs veh, DFFB / RFU, FOXP1 / Fold change vs veh, FOXP1 / RFU, CARD8 / Fold change vs veh, CARD8 / RFU, STRN3 / Fold change vs veh, STRN3 / RFU, ADK / Fold change vs veh, ADK / RFU, RASSF2 / Fold change vs veh, RASSF2 / RFU, WIPF1 / Fold change vs veh, WIPF1 / RFU, LARP1B / Fold change vs veh, LARP1B / RFU, RASA1 / Fold change vs veh, RASA1 / RFU, RB1 / Fold change vs veh, RB1 / RFU, PPFIA1 / Fold change vs veh, PPFIA1 / RFU, MAT2A / Fold change vs veh, MAT2A / RFU, CCT5 / Fold change vs veh, CCT5 / RFU, WDR92 / Fold change vs veh, WDR92 / RFU, CUX1 / Fold change vs veh, CUX1 / RFU, TTC7A / Fold change vs veh, TTC7A / RFU, TMEM135 / Fold change vs veh, TMEM135 / RFU, DEPTOR / Fold change vs veh, DEPTOR / RFU, CPM / Fold change vs veh, CPM / RFU, DNAJB6 / Fold change vs veh, DNAJB6 / RFU, CACNA2D3 / Fold change vs veh, CACNA2D3 / RFU, DTX4 / Fold change vs veh, DTX4 / RFU, TFCP2 / Fold change vs veh, TFCP2 / RFU, GMCL1 /// GMCL1P1 / Fold change vs veh, GMCL1 /// GMCL1P1 / RFU, AEBP2 / Fold change vs veh, AEBP2 / RFU, SNHG1 /// SNORD22 /// SNORD25 /// SNORD26 /// SNORD27 /// SNORD28 /// SNORD29 /// SNORD31 / Fold change vs veh, SNHG1 /// SNORD22 /// SNORD25 /// SNORD26 /// SNORD27 /// SNORD28 /// SNORD29 /// SNORD31 / Fold change (Aza/veh), C12orf56 (ProbeSet 11735607_a_at) / Fold change (ACY-1035/veh), C12orf56 (ProbeSet 11735607_a_at) / Fold change (Aza/veh), FGFR1OP (ProbeSet 11751329_s_at) / Fold change (ACY-1035/veh), FGFR1OP (ProbeSet 11751329_s_at) / Fold change (Aza/veh), VPS36 (ProbeSet 11739960_a_at) / Fold change (ACY-1035/veh), VPS36 (ProbeSet 11739960_a_at) / RFU SYPL1 (11715823_x_at) / Fold change /veh SYPL1 (11715823_x_at) / RFU IGFBP7 (11715501_s_at) / Fold change /veh IGFBP7 (11715501_s_at) / RFU REEP3 (11722064_at) / Fold change /veh REEP3 (11722064_at) / RFU IGLL1 (11728026_x_at) / Fold change /veh IGLL1 (11728026_x_at): dose or concentration left out as unconfirmed
# Conditions: MV-4-11 cells, 48 hours
smiles,measurement,value
Nc1ccc(-c2cccs2)cc1NC(=O)c1ccc2c(c1)cc(C1CC1)n2CCN1CCOCC1 [ACY-1035],RFU TMPRSS4 (11748680_a_at),52.95 RFU
